Results taken from patent US20190029257A1, “APPLICATION FOR HERBICIDE-TOLERANT PROTEIN” (BEIJING DABEINONG TECHNOLOGY GROUP CO., LTD., priority 2016, published 2019).

What was measured:
Format in all cases: in vivo
[1] = test system: transgenic maize plants (ALT-1, ALT-2 and ALT-3); assay: Halosulfuron-methyl tolerance of maize plants; settings: summary of Table 4
Protocol: Zm cytoplasmic ALT-1-02 maize plants, Zm chloroplastic ALT-1-02 maize plants, Zm cytoplasmic ALT-2-02 maize plants, Zm chloroplastic ALT-2-02 maize plants, Zm cytoplasmic ALT-3-02 maize plants, Zm chloroplastic ALT-3-02 maize plants and wild-type maize plants were respectively taken and sprayed with halosulfuron-methyl (36 g ai/ha, 4-fold field concentration) and a blank solvent (water). The damage degree caused by the herbicide was measured for each plant according to the plant growth status 3 days after spraying (3 DAT), 7 days after spraying (7 DAT), 14 days after spraying (14 DAT) and 21 days after spraying (21 DAT), respectively: considering a growth status equivalent to that of the untreated plants as having a damage degree of 0%; considering conditions of leaves being partially chlorotic and yellow but substantially not affecting the plant normal growth as having a damage degree of 50%; and considering the whole plant being purple and dying as having a damage degree of 100%. […]

[2] = test system: Zm cytoplasmic ALT-3-02 maize plants; assay: Halosulfuron-methyl tolerance of maize plants (damage degree); settings: 36 g ai/ha (4x Hal.); for Average damage % 3 DAT: 3 days after spraying; for Average damage % 7 DAT: 7 days after spraying; for Average damage % 14 DAT: 14 days after spraying; for Average damage % 21 DAT: 21 days after spraying
Excerpt: (§1) The herbicide tolerance effects of Zm cytoplasmic ALT-1-02 maize plants, Zm chloroplastic ALT-1-02 maize plants, Zm cytoplasmic ALT-2-02 maize plants, Zm chloroplastic ALT-2-02 maize plants, Zm cytoplasmic ALT-3-02 maize plants, Zm chloroplastic ALT-3-02 maize plants and wild-type maize plants on halosulfuron-methyl were detected (at V3-V4 stage), respectively.
(§2) Zm cytoplasmic ALT-1-02 maize plants, Zm chloroplastic ALT-1-02 maize plants, Zm cytoplasmic ALT-2-02 maize plants, Zm chloroplastic ALT-2-02 maize plants, Zm cytoplasmic ALT-3-02 maize plants, Zm chloroplastic ALT-3-02 maize plants and wild-type maize plants were respectively taken and sprayed with halosulfuron-methyl (36 g ai/ha, 4-fold field concentration) and a blank solvent (water). The damage degree caused by the herbicide was measured for each plant according to the plant growth status 3 days after spraying (3 DAT), 7 days after spraying (7 DAT), 14 days after spraying (14 DAT) and 21 days after spraying (21 DAT), respectively: considering a growth status equivalent to that of the untreated plants as having a damage degree of 0%; considering conditions of leaves being partially chlorotic and yellow but substantially not affecting the plant normal growth as having a damage degree of 50%; and considering the whole plant being purple and dying as having a damage degree of 100%. There were 2 strains in Zm cytoplasmic ALT-1-02 maize plants in total (S13 and S14), 2 strains in Zm chloroplastic ALT-1-02 maize plants in total (S15 and S16), 2 strains in Zm cytoplasmic ALT-2-02 maize plants in total (S17 and S18), 2 strains in Zm chloroplastic ALT-2-02 maize plants in total (S19 and S20), 2 strains in Zm cytoplasmic ALT-3-02 maize plants in total (S21 and S22), 2 strains in Zm chloroplastic ALT-3-02 maize plants in total (S23 and S24), and 1 strain in wild- type maize plants (CK2) in total; and 10-15 plants were selected from each strain and tested.

[3] = test system: Zm cytoplasmic ALT-1-02 maize plants; assay: as above; settings: 36 g ai/ha (4x Hal.); for Average damage % 3 DAT: 3 days after spraying; for Average damage % 7 DAT: 7 days after spraying; for Average damage % 14 DAT: 14 days after spraying; for Average damage % 21 DAT: 21 days after spraying
Excerpt: as §1, §2

[4] = test system: Zm chloroplastic ALT-1-02 maize plants; assay: as above; settings: 36 g ai/ha (4x Hal.); for Average damage % 3 DAT: 3 days after spraying; for Average damage % 7 DAT: 7 days after spraying; for Average damage % 14 DAT: 14 days after spraying; for Average damage % 21 DAT: 21 days after spraying
Excerpt: as §1, §2

[5] = test system: Zm chloroplastic ALT-2-02 maize plants; assay: as above; settings: 36 g ai/ha (4x Hal.); for Average damage % 3 DAT: 3 days after spraying; for Average damage % 7 DAT: 7 days after spraying; for Average damage % 14 DAT: 14 days after spraying; for Average damage % 21 DAT: 21 days after spraying
Excerpt: as §1, §2

[6] = test system: Zm cytoplasmic ALT-2-02 maize plants; assay: as above; settings: 36 g ai/ha (4x Hal.); for Average damage % 3 DAT: 3 days after spraying; for Average damage % 7 DAT: 7 days after spraying; for Average damage % 14 DAT: 14 days after spraying; for Average damage % 21 DAT: 21 days after spraying
Excerpt: as §1, §2

[7] = test system: wild-type soybean plants (CK1); assay: Halosulfuron-methyl tolerance of soybean plants (damage degree)
Excerpt: as §1, with “Gm” for “Zm”, “ALT-1-01 soybean” for “ALT-1-02 maize”, “ALT-2-01 soybean” for “ALT-2-02 maize”, “ALT-3-01 soybean” for “ALT-3-02 maize”, “soybean” for “maize”, “seedling” for “V3-V4”
Gm cytoplasmic ALT-1-01 soybean plants, Gm chloroplastic ALT-1-01 soybean plants, Gm cytoplasmic ALT-2-01 soybean plants, Gm chloroplastic ALT-2-01 soybean plants, Gm cytoplasmic ALT-3-01 soybean plants, Gm chloroplastic ALT-3-01 soybean plants and wild-type soybean plants were respectively taken and sprayed with halosulfuron-methyl ([…]) and a blank solvent (water). The damage degree caused by the herbicide was measured for each plant according to the leaf curl degree and the growth point damage degree 3 days after spraying (3 DAT), 7 days after spraying (7 DAT), 14 days after spraying (14 DAT) and 21 days after spraying (21 DAT), respectively: considering conditions of leaves being flat as the untreated plants and growth points being intact as having a damage degree of 0%; considering conditions of veins being locally browned, new leaves being malformed and plant growth being slow as having a damage degree of 50%; and considering conditions of veins being purple to whole plant being dead and growth points being browned and dry as having a damage degree of 100%. There were 2 strains in Gm cytoplasmic ALT-1-01 soybean plants in total (S1 and S2), 2 strains in Gm chloroplastic ALT-1-01 soybean plants in total (S3 and S4), 2 strains in Gm cytoplasmic ALT-2-01 soybean plants in total (S5 and S6), 2 strains in Gm chloroplastic ALT-2-01 soybean plants in total (S7 and S8), 2 strains in Gm cytoplasmic ALT-3-01 soybean plants in total (S9 and S10), 2 strains in Gm chloroplastic ALT-3-01 soybean plants in total (S11 and S12), and 1 strain in wild-type soybean plants (CK1) in total; and 10-15 plants were selected from each strain and tested.

SMILES: COC(=O)c1c(Cl)nn(C)c1S(=O)(=O)NC(=O)Nc1nc(OC)cc(OC)n1 [halosulfuron-methyl, 3-chlorine-5-(4,6-dimethoxypyrimidine-2-aminocarbonylaminosulphonyl)-1-methylpyrazole-4-carboxylic acid methyl ester]
- tolerance of the plants to the herbicide [1]: high level of halosulfuron-methyl herbicide tolerance
- Average damage % 3 DAT ([2]; strain S21): 0%
- Average damage % 7 DAT ([2]; strain S21): 4%
- Average damage % 14 DAT ([2]; strain S21): 0%
- Average damage % 21 DAT ([2]; strain S21): 0%
- Average damage % 3 DAT ([2]; strain S22): 0%
- Average damage % 7 DAT ([2]; strain S22): 5%
- Average damage % 14 DAT ([2]; strain S22): 0%
- Average damage % 21 DAT ([2]; strain S22): 0%
- Average damage % 3 DAT ([3]; strain S13): 0%
- Average damage % 7 DAT ([3]; strain S13): 2%
- Average damage % 14 DAT ([3]; strain S13): 0%
- Average damage % 21 DAT ([3]; strain S13): 0%
- Average damage % 3 DAT ([3]; strain S14): 0%
- Average damage % 7 DAT ([3]; strain S14): 3%
- Average damage % 14 DAT ([3]; strain S14): 0%
- Average damage % 21 DAT ([3]; strain S14): 0%
- Average damage % 3 DAT ([4]; strain S15): 0%
- Average damage % 7 DAT ([4]; strain S15): 0%
- Average damage % 14 DAT ([4]; strain S15): 0%
- Average damage % 21 DAT ([4]; strain S15): 0%
- Average damage % 3 DAT ([4]; strain S16): 0%
- Average damage % 7 DAT ([4]; strain S16): 0%
- Average damage % 14 DAT ([4]; strain S16): 0%
- Average damage % 21 DAT ([4]; strain S16): 0%
- Average damage % 3 DAT ([5]; strain S19): 0%
- Average damage % 7 DAT ([5]; strain S19): 0%
- Average damage % 14 DAT ([5]; strain S19): 0%
- Average damage % 21 DAT ([5]; strain S19): 0%
- Average damage % 3 DAT ([5]; strain S20): 0%
- Average damage % 7 DAT ([5]; strain S20): 0%
- Average damage % 14 DAT ([5]; strain S20): 0%
- Average damage % 21 DAT ([5]; strain S20): 0%
- Average damage % 3 DAT ([6]; strain S17): 0%
- Average damage % 7 DAT ([6]; strain S17): 3%
- Average damage % 14 DAT ([6]; strain S17): 0%
- Average damage % 21 DAT ([6]; strain S17): 0%
- Average damage % 3 DAT ([6]; strain S18): 0%
- Average damage % 7 DAT ([6]; strain S18): 2%
- Average damage % 14 DAT ([6]; strain S18): 0%
- Average damage % 21 DAT ([6]; strain S18): 0%
- tolerance of the plants to the herbicide ([7]; 34 g ai/ha, summary of Table 3): not tolerant
- Average damage % 3 DAT ([7]; strain CK1, 34 g ai/ha (Hal.), 3 days after spraying): 51%
- Average damage % 7 DAT ([7]; strain CK1, 34 g ai/ha (Hal.), 7 days after spraying): 87%
- Average damage % 14 DAT ([7]; strain CK1, 34 g ai/ha (Hal.), 14 days after spraying): 100%
- Average damage % 21 DAT ([7]; strain CK1, 34 g ai/ha (Hal.), 21 days after spraying): 100%
